The values below come from patent US9777003B2, “Tricyclic heterocycles as bet protein inhibitors” (Incyte Corporation, priority 2013, dated 2017).

The target of one experiment is BRD4-BD1 (Homo sapiens (Human), UniProt O60885). The experiment in a line: BRD4 AlphaScreen assay, BRD4-BD1. The format is binding. The note with it: biotin-labeled tetra-acetylated histone H4 peptide, 75 min, room temperature, read-out: BRD4 BD-1 enzyme IC50. The essentials:
(§1)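 AlphaScreen displacement of 50 nM biotin-tetra-acetylated H4 peptide from 3.8 nM BRD4-BD1 (1.25% DMSO) or 20 nM BRD4-BD2 (0.83% DMSO) in HEPES pH 7.4 buffer, 75 min RT. Streptavidin donor/GSH acceptor beads added, 75 min dark; IC50 from log-concentration curve fit.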

A further experiment has as its target BRD4-BD2 (Homo sapiens (Human), UniProt O60885). The experiment in a line: BRD4 AlphaScreen assay, BRD4-BD2. The format is binding. The note with it: biotin-labeled tetra-acetylated histone H4 peptide, 75 min, room temperature, read-out: BRD4 BD-2 enzyme IC50. The essentials:
as §1

Where a name gives a salt, the structure may show the parent alone. Where only a bound is given, the exact number is not on record here.

Turning to `CCNCc1cccc(Cn2c(C)cc3c2ccc2nnc(C)n23)c1` [Example 42, N-{3-[(1,7-dimethyl-6H-pyrrolo[2,3-e][1,2,4]triazolo[4,3-a]pyridin-6-yl)methyl]benzyl}ethanamine], the IC50 at BRD4-BD1 and at BRD4-BD2 was no more than 100 nM in each case.

`Cc1cc2c(cc(Nc3ccncc3)c3nnc(C)n32)n1Cc1ccccc1` [Example 255, 6-Benzyl-1,7-dimethyl-N-(pyridin-4-yl)-6H-pyrrolo[2,3-e][1,2,4]triazolo[4,3-a]pyridin-4-amine]: the figures for the half-maximal inhibitory concentration (IC50) at BRD4-BD1 and at BRD4-BD2 were 100 to 1000 nM and no more than 100 nM, respectively.

Turning to `Cc1nnc2ccc3c(cc(-c4ccn(CCO)n4)n3Cc3cccc(Cl)c3)n12` [Example 178, 2-{3-[6-(3-Chlorobenzyl)-1-methyl-6H-pyrrolo[2,3-e][1,2,4]triazolo[4,3-a]pyridin-7-yl]-1H-pyrazol-1-yl}ethanol Trifluoroacetate Salt], the half-inhibitory concentration (IC50) on BRD4-BD1 and on BRD4-BD2 was no more than 100 nM throughout.

Regarding `Cc1nnc2ccc3c(cc(C4=NCCO4)n3Cc3cccc(Cl)c3)n12` [Example 193, 6-(3-Chlorobenzyl)-7-(4,5-dihydro-1,3-oxazol-2-yl)-1-methyl-6H-pyrrolo[2,3-e][1,2,4]triazolo[4,3-a]pyridine], the half-maximal inhibitory concentration (IC50) on BRD4-BD1 and on BRD4-BD2 was no more than 100 nM in each case.

With `Cc1nnc2ccc3c(cc(-c4ccn(CCC(=O)N5CCN(C)CC5)n4)n3Cc3cccc(Cl)c3)n12` [Example 105, 6-(3-chlorobenzyl)-1-methyl-7-{1-[3-(4-methylpiperazin-1-yl)-3-oxopropyl]-1H-pyrazol-3-yl}-6H-pyrrolo[2,3-e][1,2,4]triazolo[4,3-a]pyridine], the IC50 on BRD4-BD1 and at BRD4-BD2 was no more than 100 nM each time.

`Cc1cc2c(cc(N[C@H]3CCN(C(=O)OC(C)(C)C)C3)c3nnc(C)n32)n1Cc1ccccc1` [Example 150, tert-butyl (3S)-3-[(6-benzyl-1,7-dimethyl-6H-pyrrolo[2,3-e][1,2,4]triazolo[4,3-a]pyridin-4-yl)amino]pyrrolidine-1-carboxylate]: the IC50 at BRD4-BD1 and at BRD4-BD2 was no more than 100 nM throughout.

Consider `Cc1cc2c(cc(NC(N)=O)c3nnc(C)n32)n1Cc1ccc(F)cc1F` [Example 236, 1-(6-(2,4-Difluorobenzyl)-1,7-dimethyl-6H-pyrrolo[2,3-e][1,2,4]triazolo[4,3-a]pyridin-4-yl)urea], for which the IC50 on BRD4-BD1 and on BRD4-BD2 was no more than 100 nM in each case.

In the case of `Cc1nnc2ccc3c(cc(-c4ncco4)n3Cc3cc(Cl)cc(CN4CCCC4)c3)n12` [Example 197, 6-[3-Chloro-5-(pyrrolidin-1-ylmethyl)benzyl]-1-methyl-7-(1,3-oxazol-2-yl)-6H-pyrrolo[2,3-e][1,2,4]triazolo[4,3-a]pyridine bis(trifluoroacetate) Salt], the IC50 at BRD4-BD1 and on BRD4-BD2 was no more than 100 nM each time.

As to `Cc1nnc2ccc3c(cc(C(=O)NCC4CNC4)n3Cc3cccc(Cl)c3)n12` [Example 128, N-(Azetidin-3-ylmethyl)-6-(3-chlorobenzyl)-1-methyl-6H-pyrrolo[2,3-e][1,2,4]triazolo[4,3-a]pyridine-7-carboxamide bis(trifluoroacetate) Salt], the IC50 on BRD4-BD1 and on BRD4-BD2 was 100 to 1000 nM in each case.

Consider `CCNc1cc2c(cc(C)n2Cc2ccccc2)n2c(C)nnc12` [Example 259, 6-Benzyl-N-ethyl-1,7-dimethyl-6H-pyrrolo[2,3-e][1,2,4]triazolo[4,3-a]pyridin-4-amine], for which the IC50 at BRD4-BD1 and at BRD4-BD2 was no more than 100 nM each time.

As to `Cc1cc2c(ccc3nnc(C)n32)n1Cc1cccnc1` [Example 11, 1,7-dimethyl-6-(pyridin-3-ylmethyl)-6H-pyrrolo[2,3-e][1,2,4]triazolo[4,3-a]pyridine], the IC50 at BRD4-BD1 and at BRD4-BD2 was 100 to 1000 nM each time.

As to `CCn1ccc(-c2cc3c(ccc4nnc(C)n43)n2Cc2ccccc2)n1` [Example 79, 6-benzyl-7-(1-ethyl-1H-pyrazol-3-yl)-1-methyl-6H-pyrrolo[2,3-e][1,2,4]triazolo[4,3-a]pyridine], the IC50 at BRD4-BD1 and on BRD4-BD2 was no more than 100 nM throughout.

For `Cc1nnc2ccc3c(cc(C(=O)NCCCO)n3Cc3ccccc3)n12` [Example 123, 6-Benzyl-N-(3-hydroxypropyl)-1-methyl-6H-pyrrolo[2,3-e][1,2,4]triazolo[4,3-a]pyridine-7-carboxamide Trifluoroacetate Salt], the IC50 (as a rule, the concentration that gives 50% inhibition) is 100 to 1000 nM on BRD4-BD1 and no more than 100 nM on BRD4-BD2.

`Cc1nnc2ccc3c(cc(-c4ccn(C5(CC#N)CN(S(C)(=O)=O)C5)n4)n3Cc3cccc(Cl)c3)n12` [Example 107, [3-{3-[6-(3-chlorobenzyl)-1-methyl-6H-pyrrolo[2,3-e][1,2,4]triazolo[4,3-a]pyridin-7-yl]-1H-pyrazol-1-yl}-1-(methylsulfonyl)azetidin-3-yl]acetonitrile]: the half-inhibitory concentration (IC50) at BRD4-BD1 and at BRD4-BD2 was no more than 100 nM in each case.

Turning to `Cc1nnc2ccc3c(cc(-c4ccn(C)n4)n3Cc3cc(Cl)cc(CN4CCCC4)c3)n12` [Example 190, 6-[3-Chloro-5-(pyrrolidin-1-ylmethyl)benzyl]-1-methyl-7-(1-methyl-1H-pyrazol-3-yl)-6H-pyrrolo[2,3-e][1,2,4]triazolo[4,3-a]pyridine bis(trifluoroacetate) Salt], the IC50 at BRD4-BD1 and on BRD4-BD2 was no more than 100 nM in each case.

For the compound `Cc1cc2c(ccc3nnc(C)n32)n1Cc1cccc(CN2CCC2)c1` [Example 28, 6-[3-(azetidin-1-ylmethyl)benzyl]-1,7-dimethyl-6H-pyrrolo[2,3-e][1,2,4]triazolo[4,3-a]pyridine], the concentration for half-maximal inhibition (IC50) at BRD4-BD1 and at BRD4-BD2 was no more than 100 nM throughout.

As to `Cc1cc2c(cc(NC3CCC(C#N)CC3)c3nnc(C)n32)n1Cc1ccccc1` (single isomer, unassigned) [Example 215 a, 4-[(6-benzyl-1,7-dimethyl-6H-pyrrolo[2,3-e][1,2,4]triazolo[4,3-a]pyridin-4-yl)amino]cyclohexanecarbonitrile Trifluoroacetate Salt], the half-inhibitory concentration (IC50) is 100 to 1000 nM at BRD4-BD1 and no more than 100 nM at BRD4-BD2.

In the case of `Cc1nnc2ccc3c(cc(-c4ncco4)n3Cc3cc(Cl)cc(CN4CC(O)C4)c3)n12` [Example 198, 1-(3-Chloro-5-{[1-methyl-7-(1,3-oxazol-2-yl)-6H-pyrrolo[2,3-e][1,2,4]triazolo[4,3-a]pyridin-6-yl]methyl}benzyl)azetidin-3-ol bis(trifluoroacetate) Salt], the IC50 on BRD4-BD1 and at BRD4-BD2 was no more than 100 nM throughout.

In the case of `Cc1cc2c(cc(N[C@H]3CCNC3)c3nnc(C)n32)n1Cc1ccccc1` [Example 152, 6-benzyl-1,7-dimethyl-N-[(3S)-pyrrolidin-3-yl]-6H-pyrrolo[2,3-e][1,2,4]triazolo[4,3-a]pyridin-4-amine bis(trifluoroacetate) Salt], the 50% inhibitory concentration (IC50) at BRD4-BD1 and on BRD4-BD2 was no more than 100 nM each time.

As to `Cc1cc2c(ccc3nnc(C)n32)n1Cc1ccccc1Cl` [Example 8, 6-(2-chlorobenzyl)-1,7-dimethyl-6H-pyrrolo[2,3-e][1,2,4]triazolo[4,3-a]pyridine], the 50% inhibitory concentration (IC50) on BRD4-BD1 was 100 to 1000 nM; on BRD4-BD2, no more than 100 nM.

On to `Cc1cc2c(cc(O)c3nnc(C)n32)n1Cc1ccccc1` [Example 204, 6-Benzyl-1,7-dimethyl-6H-pyrrolo[2,3-e][1,2,4]triazolo[4,3-a]pyridin-4-ol Trifluoroacetate Salt], for which the concentration for half-maximal inhibition (IC50) at BRD4-BD1 and on BRD4-BD2 was no more than 100 nM in each case.

For `Cc1nnc2ccc3c(cc(C(=O)NCCCO)n3Cc3cccc(Cl)c3)n12` [Example 127, 6-(3-Chlorobenzyl)-N-(3-hydroxypropyl)-1-methyl-6H-pyrrolo[2,3-e][1,2,4]triazolo[4,3-a]pyridine-7-carboxamide Trifluoroacetate Salt], the IC50 on BRD4-BD1 and on BRD4-BD2 was no more than 100 nM throughout.

Regarding `Cc1cc2c(ccc3nnc(C)n32)n1Cc1cccc(C#N)c1` [Example 20, 3-[(1,7-dimethyl-6H-pyrrolo[2,3-e][1,2,4]triazolo[4,3-a]pyridine-6-yl)methyl]benzonitrile], the IC50 is 100 to 1000 nM on BRD4-BD1 and no more than 100 nM on BRD4-BD2.

Regarding `Cc1cc2c(cc(NCCCN)c3nnc(C)n32)n1Cc1ccccc1` [Example 257, N1-(6-Benzyl-1,7-dimethyl-6H-pyrrolo[2,3-e][1,2,4]triazolo[4,3-a]pyridin-4-yl)propane-1,3-diamine], the IC50 at BRD4-BD1 and on BRD4-BD2 was no more than 100 nM in each case.

As for `Cc1cc2c(cc(NC3CCNCC3)c3nnc(C)n32)n1Cc1ccccc1` [Example 206, 6-Benzyl-1,7-dimethyl-N-piperidin-4-yl-6H-pyrrolo[2,3-e][1,2,4]triazolo[4,3-a]pyridin-4-amine], the half-inhibitory concentration (IC50) at BRD4-BD1 and at BRD4-BD2 was no more than 100 nM in each case.

On to `COCCNc1cc2c(cc(C)n2Cc2ccccc2)n2c(C)nnc12` [Example 209, 6-Benzyl-N-(2-methoxyethyl)-1,7-dimethyl-6H-pyrrolo[2,3-e][1,2,4]triazolo[4,3-a]pyridin-4-amine], for which the half-inhibitory concentration (IC50) on BRD4-BD1 and at BRD4-BD2 was no more than 100 nM each time.

As for `Cc1cc2c(cc(N[C@H]3CC[C@H](N)CC3)c3nnc(C)n32)n1Cc1ccccc1` [Example 217, trans-N-(6-Benzyl-1,7-dimethyl-6H-pyrrolo[2,3-e][1,2,4]triazolo[4,3-a]pyridin-4-yl)cyclohexane-1,4-diamine], the IC50 at BRD4-BD1 and on BRD4-BD2 was no more than 100 nM each time.

As for `Cc1nnc2ccc3c(cc(-c4ccn(CCN5CCOCC5)n4)n3Cc3ccccc3)n12` [Example 77, 6-benzyl-1-methyl-7-[1-(2-morpholin-4-ylethyl)-1H-pyrazol-3-yl]-6H-pyrrolo[2,3-e][1,2,4]triazolo[4,3-a]pyridine], the IC50 on BRD4-BD1 and on BRD4-BD2 was no more than 100 nM in each case.
